Results from paper PMC11357054, “Azobenzenesulfonamide Carbonic Anhydrase Inhibitors as New Weapons to Fight Helicobacter pylori: Synthesis, Bioactivity Evaluation, In Vivo Toxicity, and Computational Studies” (Pharmaceuticals, 2024).
Converted amounts (≈) assume the structure as drawn. Like-named read-outs stand apart in the source and are kept apart here.

Columns and labels:
hCA I [1] = biological target: T1, hCA I (Homo sapiens, UniProt P00915); experiment: stopped-flow CO2 hydration; type: biochemical; settings: read-out: KI (nM) * / Human Isoforms / hCA I
T1 construct: gene CA1; purchased from Merck
Text: stopped-flow CO2 hydration on hCA I

hCA II = biological target: T2, hCA II (Homo sapiens, UniProt P00918); experiment: stopped-flow CO2 hydration; type: biochemical; settings: read-out: KI (nM) * / Human Isoforms / hCA II
T2 construct: gene CA2; purchased from Merck
Text: stopped-flow CO2 hydration on hCA II

hCA IX [2] = biological target: T3, hCA IX (Homo sapiens, UniProt Q16790); experiment: stopped-flow CO2 hydration; type: biochemical; settings: read-out: KI (nM) * / Human Isoforms / hCA IX
T3 construct: gene CA9
Text: stopped-flow CO2 hydration on hCA IX

PgiγCA = biological target: T4, PgiγCA; experiment: stopped-flow CO2 hydration; type: biochemical, Porphyromonas gingivalis; settings: pH […] HEPES, […] Na2SO4, […] min preincubation, r.t.; read-out: KI (nM) * / Bacterial Isoforms / Pgi γCA
T4 construct: gene PgiCA; recombinant, obtained in-house

HpαCA = biological target: T5, HpαCA (Helicobacter pylori, UniProt B5Z8I0); experiment: stopped-flow CO2 hydration; type: biochemical
T5 construct: gene HPG27_1129; recombinant, obtained in-house; PDB 4XFW is given for docking only
T5 sequence (B5Z8I0 22-247): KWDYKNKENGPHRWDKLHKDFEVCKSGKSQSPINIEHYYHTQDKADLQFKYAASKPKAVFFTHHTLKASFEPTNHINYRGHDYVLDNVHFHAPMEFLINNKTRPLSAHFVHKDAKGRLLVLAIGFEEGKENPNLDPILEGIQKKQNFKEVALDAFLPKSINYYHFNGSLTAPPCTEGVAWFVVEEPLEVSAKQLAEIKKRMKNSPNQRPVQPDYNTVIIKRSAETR

EcoβCA [3] = biological target: T6, EcoβCA (Escherichia coli, UniProt P61517); experiment: stopped-flow CO2 hydration; type: biochemical; settings: read-out: KI (nM) * / Bacterial Isoforms / Eco βCA
T6 construct: gene can; recombinant, obtained in-house

hCA XII [4] = biological target: T7, hCA XII (Homo sapiens, UniProt O43570); experiment: stopped-flow CO2 hydration; type: biochemical; settings: read-out: KI (nM) * / Human Isoforms / hCA XII
T7 construct: gene CA12
Text: stopped-flow CO2 hydration on hCA XII

HpβCA = biological target: T8, HpβCA (Helicobacter pylori, UniProt Q9ZN54); experiment: stopped-flow CO2 hydration; type: biochemical; settings: read-out: KI (nM) * / Bacterial Isoforms / Hp βCA
T8 construct: gene cynT; recombinant, obtained in-house
T8 sequence (Q9ZN54 1-221): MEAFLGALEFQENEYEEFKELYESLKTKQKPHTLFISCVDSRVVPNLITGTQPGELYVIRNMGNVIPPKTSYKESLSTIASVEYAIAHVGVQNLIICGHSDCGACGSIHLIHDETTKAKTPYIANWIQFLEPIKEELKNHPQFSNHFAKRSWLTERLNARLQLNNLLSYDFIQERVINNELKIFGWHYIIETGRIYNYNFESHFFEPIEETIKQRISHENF

PsCA3 [5] = biological target: T9, PsCA3 (Pseudomonas aeruginosa, UniProt Q9HVB9); experiment: stopped-flow CO2 hydration; type: biochemical; settings: read-out: KI (nM) * / Bacterial Isoforms / Ps CA3
T9 construct: gene PA4676; recombinant, obtained in-house
T9 sequence (Q9HVB9 1-215): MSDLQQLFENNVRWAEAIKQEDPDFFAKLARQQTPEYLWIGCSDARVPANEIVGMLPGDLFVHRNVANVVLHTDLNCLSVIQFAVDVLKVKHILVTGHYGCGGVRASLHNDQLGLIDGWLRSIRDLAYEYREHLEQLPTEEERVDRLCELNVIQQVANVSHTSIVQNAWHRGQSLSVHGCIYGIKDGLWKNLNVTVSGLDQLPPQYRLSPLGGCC

PgiβCA = biological target: T10, PgiβCA; experiment: stopped-flow CO2 hydration; type: biochemical, Porphyromonas gingivalis; settings: pH […] HEPES, […] Na2SO4, […] min preincubation, r.t.; read-out: KI (nM) * / Bacterial Isoforms / Pgi βCA
T10 construct: gene PgiCAb; recombinant, obtained in-house

H. pylori ATCC 43504 = system: T11, H. pylori ATCC 43504; experiment: microbe, parasite or virus in culture; parameters: species or system Helicobacter pylori ATCC 43504; MIC by broth microdilution, alamarBlue and CFU count; MBC by CFU count; settings: Helicobacter pylori, ATCC43504
T11 construct: ATCC 43504
Experimental: H. pylori ATCC 43504 was cultured on a Columbia Agar base (Becton Dickinson and Company, Franklin Lakes, NJ, USA) supplemented with 10% horse serum (Merck, St. Louis, MO, USA) and 0.25% yeast extract (Oxoid Ltd., Hampshire, UK), incubated at 37 °C for 72 h in a microaerophilic atmosphere (CampyGen, Thermo Fisher Scientific, Milan, Italy). Colonies were collected and transferred into 10 mL of Brain Heart Infusion broth (BHI, Oxoid Ltd., Hampshire, UK) supplemented with 5% (v/v) of fetal bovine serum (FBS, Merck, Milan, Italy) and incubated overnight at 37 °C, at 125 rpm under microaerophilic conditions. After 18 h of incubation, the broth culture was diluted to obtain a bacterial suspension of 10^6 CFU/mL. MICs were determined by three different assays: the broth micro-dilution method, the alamarBlue assay, and the CFU count. […] This bacterium was selected based on the inhibitory potency evidenced by the two series of azobenzenesulfonamides against the HpCAs.

EcoβCA [6] = biological target: T6, EcoβCA; experiment: biochemical; settings: read-out: Bacterial Isoforms / Eco βCA
Experimental: (§1) An Applied Photophysics stopped-flow instrument was used to evaluate the ability of the test compounds to inhibit CA-catalyzed CO2 hydration. […] The CO2 concentrations ranged from 1.7 to 17 mM for the determination of the kinetic parameters and inhibition constants. Enzyme concentrations spanned from 5 to 12 nM. Stock solutions of the inhibitor (0.1 mM) were prepared in distilled–deionized water, and dilutions up to 0.01 nM were prepared with the assay buffer. Inhibitor and enzyme solutions were preincubated for 15 min at r.t. for the formation of the E–I complex. The inhibition constants were obtained by non-linear least-squares methods using PRISM 3 and the Cheng–Prusoff equation and represent the mean from at least three different determinations. Apart from human CAs I and II purchased from Merck, all the bacterial CAs were recombinant and obtained in-house. Compounds 4a–j and 5a–j were tested on a large panel of human and bacterial isoenzymes belonging to different CA families, evaluating their inhibitory activity through the CO2 hydration activity assay by means of the stopped-flow technique, and the inhibitory constants (KIs) are reported in Table 1 and Table 2, respectively. In particular, we tested the hypoxic tumor-associated hCAs IX and XII, and bacterial isoforms involved in several infectious diseases, such as those caused by H. pylori (HpαCA and HpβCA), Porphyromonas gingivalis (PgiβCA and PgiγCA), Escherichia coli (EcoβCA), Pseudomonas aeruginosa (PsCA3, belonging to the β-class), Mammaliicoccus (Staphylococcus) sciuri (MscCA, belonging to the β-class), and Streptococcus mutans (SmuCA, belonging to the β-class). The inhibition of human physiologically relevant isoforms I and II was also investigated in order to assess the compounds’ selectivity. Our main aim was to rationalize the structural requirements of sulfonamide-containing compounds useful for targeting HpCAs, in order to gain a larger knowledge for further optimization studies focusing on isoform selectivity. In fact, although the tested human and bacterial isoforms present a low degree of sequence similarity, they catalyze the same reaction and contain the catalytically active zinc ion in the active site. Thus, a comparison of the data obtained from different members of this large superfamily has a high relevance in the field. By observing Table 1 and Table 2, interesting structure–activity relationship (SAR) considerations can be inferred.

PsCA3 [7] = biological target: T9, PsCA3; experiment: biochemical; settings: read-out: Bacterial Isoforms / Ps CA3
Experimental: as §1

hCA I [8] = biological target: T1, hCA I; experiment: biochemical; settings: read-out: Human Isoforms / hCA I
Experimental: as §1

hCA IX [9] = biological target: T3, hCA IX; experiment: biochemical; settings: read-out: Human Isoforms / hCA IX
Experimental: as §1

hCA XII [10] = biological target: T7, hCA XII; experiment: biochemical; settings: read-out: Human Isoforms / hCA XII
Experimental: as §1

[11] = read-out: KI (nM) * / Bacterial Isoforms / Hp αCA

T7 sequence (O43570 30-289 limits assumed): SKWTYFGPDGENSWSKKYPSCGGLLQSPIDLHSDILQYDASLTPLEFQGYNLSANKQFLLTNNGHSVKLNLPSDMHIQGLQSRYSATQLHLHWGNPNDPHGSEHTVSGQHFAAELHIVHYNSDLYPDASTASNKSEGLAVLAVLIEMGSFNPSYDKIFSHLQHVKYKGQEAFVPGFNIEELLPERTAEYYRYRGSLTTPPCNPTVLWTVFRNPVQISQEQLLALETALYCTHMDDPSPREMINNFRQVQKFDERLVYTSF
T1 sequence (P00915 2-261): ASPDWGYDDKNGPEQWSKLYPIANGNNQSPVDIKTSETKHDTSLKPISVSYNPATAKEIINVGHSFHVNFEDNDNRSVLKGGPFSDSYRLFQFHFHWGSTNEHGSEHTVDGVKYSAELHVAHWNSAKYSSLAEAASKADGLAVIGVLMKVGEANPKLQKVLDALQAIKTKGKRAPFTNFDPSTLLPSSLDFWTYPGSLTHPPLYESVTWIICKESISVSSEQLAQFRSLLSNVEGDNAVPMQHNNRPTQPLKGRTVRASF
T6 sequence (P61517 whole entry, canonical isoform): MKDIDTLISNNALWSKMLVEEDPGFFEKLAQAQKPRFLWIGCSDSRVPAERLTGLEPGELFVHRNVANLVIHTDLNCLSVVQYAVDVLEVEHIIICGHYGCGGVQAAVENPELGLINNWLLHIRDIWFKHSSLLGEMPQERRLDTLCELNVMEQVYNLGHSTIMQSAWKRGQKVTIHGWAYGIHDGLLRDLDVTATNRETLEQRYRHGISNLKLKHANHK

SMILES: COc1ccc(O)c(/N=N/c2ccc(S(N)(=O)=O)cc2)c1 [4a, (E)-4-((2-hydroxy-5-methoxyphenyl)diazenyl)benzenesulfonamide]
- Ki (hCA I [1]): 45 nM
- Ki (hCA II): 24.1 nM
- Ki (hCA IX [2]): 201 nM
- Ki (PgiγCA): 3440 nM
- Ki (HpαCA; [11]): 65.8 nM
- Ki (EcoβCA [3]): 400 nM
- Ki (hCA XII [4]): 9.5 nM
- Ki (HpβCA): 74.1 nM
- Ki (PsCA3 [5]): 228 nM
- Ki (PgiβCA): 803 nM
- MBC (H. pylori ATCC 43504): 32 µg/mL (≈ 104 µM)
- MIC (H. pylori ATCC 43504): 8 µg/mL (≈ 26 µM)

SMILES: COc1cc(/N=N/c2ccc(S(N)(=O)=O)cc2)ccc1O [4b, (E)-4-((4-hydroxy-3-methoxyphenyl)diazenyl)benzenesulfonamide]
- Ki (hCA I [1]): 34.8 nM
- Ki (hCA II): 3.3 nM
- Ki (hCA IX [2]): 831 nM
- Ki (PgiγCA): 837 nM
- Ki (HpαCA; [11]): 120 nM
- Ki (EcoβCA [3]): 95.8 nM
- Ki (hCA XII [4]): 21.8 nM
- Ki (HpβCA): 49.7 nM
- Ki (PsCA3 [5]): 702 nM
- Ki (PgiβCA): 1920 nM
- MBC (H. pylori ATCC 43504): 32 µg/mL (≈ 104 µM)
- MIC (H. pylori ATCC 43504): 32 µg/mL (≈ 104 µM)

SMILES: COc1cc(O)ccc1/N=N/c1ccc(S(N)(=O)=O)cc1 [4c, (E)-4-((4-hydroxy-2-methoxyphenyl)diazenyl)benzenesulfonamide]
- Ki (hCA I [1]): 84.9 nM
- Ki (hCA II): 5.4 nM
- Ki (hCA IX [2]): 545 nM
- Ki (PgiγCA): 2000 nM
- Ki (HpαCA; [11]): 70.9 nM
- Ki (EcoβCA [3]): 96.3 nM
- Ki (hCA XII [4]): 34.7 nM
- Ki (HpβCA): 17.1 nM
- Ki (PsCA3 [5]): 221 nM
- Ki (PgiβCA): 3630 nM
- MBC (H. pylori ATCC 43504): 16 µg/mL (≈ 52.1 µM)
- MIC (H. pylori ATCC 43504): 8 µg/mL (≈ 26 µM)

SMILES: NS(=O)(=O)c1ccc(/N=N/c2ccc(O)c(C(F)(F)F)c2)cc1 [4d, (E)-4-((4-hydroxy-3-(trifluoromethyl)phenyl)diazenyl)benzenesulfonamide]
- Ki (hCA I [1]): 20.1 nM
- Ki (hCA II): 4.8 nM
- Ki (hCA IX [2]): 182 nM
- Ki (PgiγCA): 94.7 nM
- Ki (HpαCA; [11]): 39 nM
- Ki (EcoβCA [3]): 738 nM
- Ki (hCA XII [4]): 40.2 nM
- Ki (HpβCA): 19.4 nM
- Ki (PsCA3 [5]): 222 nM
- Ki (PgiβCA): 3170 nM
- MBC (H. pylori ATCC 43504): 128 µg/mL (≈ 371 µM)
- MIC (H. pylori ATCC 43504): 64 µg/mL (≈ 185 µM)

SMILES: NS(=O)(=O)c1ccc(/N=N/c2ccc(O)cc2C(F)(F)F)cc1 [4e, (E)-4-((4-hydroxy-2-(trifluoromethyl)phenyl)diazenyl)benzenesulfonamide]
- Ki (hCA I [1]): 5.4 nM
- Ki (hCA II): 4.2 nM
- Ki (hCA IX [2]): 191 nM
- Ki (PgiγCA): 347 nM
- Ki (HpαCA; [11]): 89.2 nM
- Ki (EcoβCA [3]): 95.3 nM
- Ki (hCA XII [4]): 54.1 nM
- Ki (HpβCA): 68.8 nM
- Ki (PsCA3 [5]): 495 nM
- Ki (PgiβCA): 899 nM
- MBC (H. pylori ATCC 43504): 16 µg/mL (≈ 46.3 µM)
- MIC (H. pylori ATCC 43504): 8 µg/mL (≈ 23.2 µM)

SMILES: Cc1cc(/N=N/c2ccc(S(N)(=O)=O)cc2)c(C)cc1O [4f, (E)-4-((4-hydroxy-2,5-dimethylphenyl)diazenyl)benzenesulfonamide]
- Ki (hCA I [1]): 5.7 nM
- Ki (hCA II): 1.9 nM
- Ki (hCA IX [2]): 97.1 nM
- Ki (PgiγCA): 472 nM
- Ki (HpαCA; [11]): 69.4 nM
- Ki (EcoβCA [3]): 867 nM
- Ki (hCA XII [4]): 56.7 nM
- Ki (HpβCA): 70.6 nM
- Ki (PsCA3 [5]): 191 nM
- Ki (PgiβCA): 3760 nM
- MBC (H. pylori ATCC 43504): 32 µg/mL (≈ 105 µM)
- MIC (H. pylori ATCC 43504): 32 µg/mL (≈ 105 µM)

SMILES: CS(=O)(=O)Nc1ccc(N=Nc2ccccc2)cc1 [5i]
- Ki (HpαCA; read-out: KI (nM) / Bacterial Isoforms / Hp αCA): 89.8 nM
- Ki (EcoβCA [6]): 6.95 µM
- Ki (PsCA3 [7]): 9.28 µM
- Ki (hCA I [8]): 5.99 µM
- Ki (hCA IX [9]): 0.599 µM
- Ki (hCA XII [10]): 2.24 µM
- MBC (H. pylori ATCC 43504): 32 µg/mL (≈ 116 µM)
- MIC (H. pylori ATCC 43504): 16 µg/mL (≈ 58.1 µM)

SMILES: CC1(C)S[C@@H]2[C@H](NC(=O)[C@H](N)c3ccc(O)cc3)C(=O)N2[C@H]1C(=O)O [Amoxicillin]
- MBC (H. pylori ATCC 43504): 0.064 µg/mL (≈ 0.175 µM)
- MIC (H. pylori ATCC 43504): 0.064 µg/mL (≈ 0.175 µM)
